Literature values, collected in patent publication US20130142871A1, “ORAL DOSAGE FORM OF DEFERASIROX” (Ratiopharm GmbH, priority 2010, published 2013).

Conditions: see WO 2007/045445, page 2, third paragraph

- solubility in water: poorly soluble in water
SMILES: O=C(O)c1ccc(-n2nc(-c3ccccc3O)nc2-c2ccccc2O)cc1 [Deferasirox, 4-[(3Z,5E)-3,5-bis(6-oxo-1-cyclohexa-2,4-dienylidene)-1,2,4-triazolidine-1-yl]benzoic acid]
